Reference: ChEMBL document CHEMBL5154887, “Novel CRBN-Recruiting Proteolysis-Targeting Chimeras as Degraders of Stimulator of Interferon Genes with In Vivo Anti-Inflammatory Efficacy” (J Med Chem, 2022)
Active and inactive are the calls of the source. No cut-off for these calls is given here.

Columns and labels:
[1] = test system: Mus musculus; assay: (§1) In vivo inhibition of STING signalling pathway in ip dosed cisplatin-induced acute kidney injury in C57BL/6J mouse model assessed as reduction in CXCL10 expression in blood of mouse eyeballs pretreated for 1 hr followed by cisplatin administration and measured after 72 hrs by ELISA; type: functional, organism-based; conditions: time 73.0 hrs, DDE = dose-dependent effect
[2] = test system: Mus musculus; assay: Antiinflammatory activity against cisplatin-induced acute kidney injury in C57BL/6J mouse model assessed as reduction in ischemic symptoms at 30 mg/kg, ip pretreated for 1 hr followed by cisplatin administration and measured after 72 hrs relative to control; type: functional, organism-based; conditions: time 73.0 hrs
[3] = Cmax in Sprague-Dawley rat at 20 mg/kg, po measured upto 48 hrs by UPLC-triple quadrupole MS analysis; type: ADME, organism-based; parameters: time < 48 hrs, dose 20 mg/kg, route po; conditions: in vivo
[4] = test system: Mus musculus; assay: Antiinflammatory activity against cisplatin-induced acute kidney injury in C57BL/6J mouse model assessed as reduction in kidney weight at 30 mg/kg, ip pretreated for 1 hr followed by cisplatin administration and measured after 72 hrs relative to control; type: functional; parameters: scale not given: the % may be the effect or the level left; conditions: time 73 hrs
[5] = Cytotoxicity against mouse C17.2 cells assessed as reduction in cell viability at <10 uM by MTT assay; type: toxicity, cell-based; conditions: c17.2, 10 µM
[6] = target: Protein cereblon/Stimulator of interferon genes protein (Homo sapiens, UniProt Q96SW2+Q86WV6); assay: Protac activity at CRBN/STING in human THP-1 cells assessed as increase in STING degradation at 10 uM pretreated with lysosome inhibitor BAF for 1 hr followed by compound addition and measured after 48 hrs by Western blot analysis; type: cell-based
Chain of Protein cereblon/Stimulator of interferon genes protein (Q86WV6 whole entry, looked up): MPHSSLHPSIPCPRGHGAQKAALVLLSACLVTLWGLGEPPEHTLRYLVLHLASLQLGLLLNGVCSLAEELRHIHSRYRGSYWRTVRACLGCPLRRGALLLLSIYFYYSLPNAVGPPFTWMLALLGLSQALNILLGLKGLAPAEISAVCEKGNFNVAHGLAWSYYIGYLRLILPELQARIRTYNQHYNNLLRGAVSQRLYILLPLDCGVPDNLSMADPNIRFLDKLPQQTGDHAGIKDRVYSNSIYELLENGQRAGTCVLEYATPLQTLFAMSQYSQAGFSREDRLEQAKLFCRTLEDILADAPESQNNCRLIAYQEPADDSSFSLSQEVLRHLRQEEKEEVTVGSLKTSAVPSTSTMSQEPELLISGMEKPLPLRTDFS
Chain of Protein cereblon/Stimulator of interferon genes protein (Q96SW2 whole entry, looked up): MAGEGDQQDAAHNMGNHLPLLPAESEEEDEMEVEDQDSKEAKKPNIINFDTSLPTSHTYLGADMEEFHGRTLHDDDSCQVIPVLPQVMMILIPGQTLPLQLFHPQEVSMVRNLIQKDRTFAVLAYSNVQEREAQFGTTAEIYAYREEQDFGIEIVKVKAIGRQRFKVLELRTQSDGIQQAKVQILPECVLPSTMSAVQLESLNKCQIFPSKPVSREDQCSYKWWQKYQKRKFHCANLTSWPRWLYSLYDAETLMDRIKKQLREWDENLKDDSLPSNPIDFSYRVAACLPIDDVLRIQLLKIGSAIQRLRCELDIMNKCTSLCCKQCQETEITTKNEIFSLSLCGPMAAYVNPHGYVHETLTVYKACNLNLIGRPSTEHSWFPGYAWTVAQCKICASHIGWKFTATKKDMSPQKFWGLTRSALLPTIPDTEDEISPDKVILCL

[7] = test system: Mus musculus; assay: Antiinflammatory activity against cisplatin-induced acute kidney injury in C57BL/6J mouse model assessed as reduction in kidney weight at 60 mg/kg, ip pretreated for 1 hr followed by cisplatin administration and measured after 72 hrs relative to control; type: functional; parameters: scale not given: the % may be the effect or the level left; conditions: time 73 hrs
[8] = Toxicity in cisplatin-induced acute kidney injury in C57BL/6J mouse model assessed as morphological abnormalities in heart at 30 to 60 mg/kg, ip pretreated for 1 hr followed by cisplatin administration and measured after 72 hrs by H and E staining based analysis; type: organism-based; conditions: in vivo, 73 h, dose 30-60 mg/kg
[9] = MRT (0 to infinity) in Sprague-Dawley rat at 20 mg/kg, po measured upto 48 hrs by UPLC-triple quadrupole MS analysis; type: ADME, organism-based; conditions: in vivo
[10] = target: Stimulator of interferon genes protein (Homo sapiens) (UniProt Q86WV6); assay: Inhibition of STING pathway in human THP-1 cells assessed as inhibition of cGAMP-triggered NF-kappaB p-p65 expression preincubated for 2 hrs followed by cGAMP stimulation and measured after 24 hrs by Western blot analysis; type: cell-based; conditions: dose 0-20 µM, time 26.0 hrs, DDE = dose-dependent effect
Chain of Stimulator of interferon genes protein (Homo sapiens) (Q86WV6 whole entry): as the sequence (Q86WV6 whole entry, looked up) above

[11] = test system: Mus musculus; assay: In vivo inhibition of STING signalling pathway in ip dosed cisplatin-induced acute kidney injury in C57BL/6J mouse model assessed as reduction in IL-6 expression in blood of mouse eyeballs pretreated for 1 hr followed by cisplatin administration and measured after 72 hrs by ELISA; type: functional, organism-based; conditions: time 73.0 hrs, DDE = dose-dependent effect
[12] = test system: THP-1; assay: Inhibition of cGAS-STING signalling pathway in human THP-1 cells assessed as downregulation of cGAMP-triggered IL-6 expression preincubated for 2 hrs followed by cGAMP stimulation and measured after 24 hrs by ELISA; type: cell-based; conditions: dose 2.5-20 µM, time 26.0 hrs, DDE = dose-dependent effect
[13] = target: Stimulator of interferon genes protein (Homo sapiens) (UniProt Q86WV6); assay: Inhibition of STING pathway in human THP-1 cells assessed as inhibition of cGAMP-triggered pTBK1 expression preincubated for 2 hrs followed by cGAMP stimulation and measured after 24 hrs by Western blot analysis; type: cell-based; conditions: dose 0-20 µM, time 26.0 hrs, DDE = dose-dependent effect
[14] = Toxicity in cisplatin-induced acute kidney injury in C57BL/6J mouse model assessed as tubular epithelial edema in kidney at 30 to 60 mg/kg, ip pretreated for 1 hr followed by cisplatin administration and measured after 72 hrs by H and E staining based analysis; type: organism-based; conditions: in vivo, 73 h, dose 30-60 mg/kg
[15] = AUC (0 to t) in Sprague-Dawley rat at 20 mg/kg, po measured upto 48 hrs by UPLC-triple quadrupole MS analysis; type: ADME, organism-based; parameters: dose 20 mg/kg, time < 48 hrs, route po; conditions: in vivo
[16] = test system: Mus musculus; assay: Renal protective activity against cisplatin-induced acute kidney injury in C57BL/6J mouse model assessed as improvement in renal blood flow velocity at 60 mg/kg, ip by B-mode ultrasound scanner analysis; type: functional, organism-based
[17] = AUC (0 to t) in Sprague-Dawley rat at 2 mg/kg, iv measured upto 48 hrs by UPLC-triple quadrupole MS analysis; type: ADME, organism-based; parameters: time < 48 hrs, dose 2 mg/kg, route iv; conditions: in vivo
[18] = Toxicity in C57BL/6J mouse model of cisplatin-induced acute kidney injury assessed as survival rate at 30 mg/kg, ip pretreated for 1 hr followed by cisplatin administration and measured after 72 hrs relative to control; type: organism-based; conditions: in vivo, 73 h
[19] = Toxicity in cisplatin-induced acute kidney injury in C57BL/6J mouse model assessed as tubular obstruction in kidney at 30 to 60 mg/kg, ip pretreated for 1 hr followed by cisplatin administration and measured after 72 hrs by H and E staining based analysis; type: organism-based; conditions: in vivo, 73 h, dose 30-60 mg/kg
[20] = Cytotoxicity against mouse C17.2 cells assessed as cell growth inhibition at 30 uM by MTT assay relative to control; type: toxicity, cell-based
[21] = Cytotoxicity against HEK293-A cells assessed as cell growth inhibition at 30 uM by MTT assay relative to control; type: toxicity, cell-based; conditions: human
[22] = Tmax in Sprague-Dawley rat at 2 mg/kg, iv measured upto 48 hrs by UPLC-triple quadrupole MS analysis; type: ADME, organism-based; conditions: in vivo
[23] = Renal toxicity in C57BL/6J mouse assessed as reduction in creatinine level at 30 mg/kg, ip (Rvb= 8.5 umol/L); type: organism-based; conditions: in vivo
[24] = Toxicity in C57BL/6J mouse assessed as body weight loss at 30 mg/kg, ip measured after 4 days relative to control; type: organism-based; conditions: in vivo, 96 h, time 4 day
[25] = as §1, with “in” for “in ip dosed”, “STING protein” for “CXCL10”, “kidney at 60 mg/kg, ip” for “blood of mouse eyeballs”, “Western blot analysis (Rvb= 375%)” for “ELISA”; type: functional; parameters: scale not given: the % may be the effect or the level left; conditions: time 73 hrs
[26] = test system: Mus musculus; assay: In vivo inhibition of STING signalling pathway in ip dosed cisplatin-induced acute kidney injury in C57BL/6J mouse model assessed as reduction in IFN-beta expression in blood of mouse eyeballs pretreated for 1 hr followed by cisplatin administration and measured after 72 hrs by ELISA; type: functional, organism-based; conditions: time 73.0 hrs, DDE = dose-dependent effect
[27] = test system: L02; assay: Cytotoxicity against human L02 cells assessed as reduction in cell viability at <10 uM by MTT assay; type: toxicity, cell-based; conditions: l02, 10 µM
[28] = Cytotoxicity against HEK293-A cells assessed as reduction in cell viability at <10 uM by MTT assay; type: toxicity, cell-based; conditions: human
[29] = Renal toxicity in C57BL/6J mouse assessed as reduction in creatinine level at 60 mg/kg, ip (Rvb= 8.5 umol/L); type: organism-based; conditions: in vivo
[30] = Half life in Sprague-Dawley rat at 20 mg/kg, po measured upto 48 hrs by UPLC-triple quadrupole MS analysis; type: ADME, organism-based; conditions: in vivo

In the case of O=C(/C=C/C(=O)Nc1ccc(NC(=O)c2ccc([N+](=O)[O-])o2)cc1)NCCCCCCNc1cccc2c1C(=O)N(C1CCC(=O)NC1=O)C2=O (stereo not given), the inhibition [1] is reported as “Dde”, the Activity [2] is reported as “Active” and the Cmax [3] is reported as 8.37 ng/mL. For the same molecule, the Activity [4] was 14%, the Activity [5] was “Non-Toxic” and the Activity [6] was “Active”. The Activity [7] was 26%, the Activity [8] was “Non-Toxic” and the MRT inf [9] was 11.7 h. The inhibition [10] was “Dde”, the inhibition [11] was “Dde” and the Activity [12] was “Dde”. The inhibition [13] was “Dde”, the Activity [14] was “Non-Toxic” and the AUC(0-t) at 48 h [15] was 52.2 ng·h/mL. The Activity [16] was “Active”, the AUC(0-t) at 48 h [17] was 257 ng·h/mL and the Survival [18] was 89%. For the same molecule, the Activity [19] was “Non-Toxic”, the inhibition at 30 µM [20] was 15.6% and the inhibition at 30 µM [21] was 11%. For the same molecule, the Tmax [22] was 4.98 min, the Activity [23] was 26.8 µmol/L and the Activity [24] was 13%. The Activity [25] was 70%, the inhibition [26] was “Dde” and the Activity [27] was “Non-Toxic”. The Activity [28] was “Non-Toxic”, the Activity [29] was 14.8 µmol/L and the half-life [30] was 7.36 h.
